# Experimental data: US4737510A, “Bioactive metabolites from the caribbean sponge agelas coniferin” (priority 1986, dated 1988)
# Values joined by “and” are separate entries in the source; they are usually repeats but may differ in a detail not shown here. Equal entries are not always repeated. Where two headings read alike, the source gives them in different places.
# How the values were obtained:
# Escherichia coli = assay: Disc diffusion antimicrobial assay, Escherichia coli; format: cell-based; conditions: Escherichia coli, 6.5 mm disc, read-out: diameter of the clear zone of inhibition; for zone of inhibition at 10 µg/disc: 10 μg/disk; for zone of inhibition at 50 µg/disc: 50 μg/disk; for zone of inhibition at 100 µg/disc: 100 μg/disk
# Bacillus subtilis = assay: Disc diffusion antimicrobial assay, Bacillus subtilis; format: cell-based; conditions: for zone of inhibition at 10 µg/disc / zone of inhibition at 50 µg/disc / zone of inhibition at 100 µg/disc: Bacillus subtilis, 6.5 mm disc, read-out: diameter of the clear zone of inhibition; for zone of inhibition at 50 µg/disc: 50 μg/disk; for zone of inhibition at 100 µg/disc: 100 μg/disk
# [1] = tested on: Herpes simplex virus, type I (HSV-1); assay: microbe, parasite or virus in culture; format: cell-based; conditions: Human alphaherpesvirus 1, in Primates
# [2] = tested on: vesicular stomatitis virus (VSV); assay: microbe, parasite or virus in culture; format: cell-based; conditions: Vesicular stomatitis virus, in Primates
# [3] = tested on: Herpes Simplex Virus type 1 (HSV-1); assay: Antiviral activity against HSV-1 determined by Dr. R. G. Hughes, Jr.;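 also: grades: +++ strong ++ moderate + light ± questionable - negative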; format: cell-based
# E. coli strain BR339 = format: cell-based
# [4] = tested on: Monkey Kidney Cells (CV-1); assay: Cytotoxicity to monkey kidney cells (CV-1) determined by Dr. R. G. Hughes, Jr.; conditions: 8 or less essentially indicates noncytotoxicity
# [5] = read-out: antiviral activity, HSV-1, ++ scale
# [6] = read-out: antiviral activity, HSV-1, zone diameter
# [7] = read-out: antiviral activity, VSV, ++ scale
# [8] = read-out: antiviral activity, VSV, zone diameter
SMILES,zone of inhibition at 10 µg/disc (Escherichia coli) [mm],zone of inhibition at 50 µg/disc (Escherichia coli) [mm],zone of inhibition at 100 µg/disc (Escherichia coli) [mm],zone of inhibition at 10 µg/disc (Bacillus subtilis; 10 μg/disk) [mm],zone of inhibition at 50 µg/disc (Bacillus subtilis) [mm],zone of inhibition at 100 µg/disc (Bacillus subtilis) [mm],"zone of inhibition at 20 µg/disc [1, 5] [mm]","zone of inhibition at 50 µg/disc [1, 5] [mm]","zone of inhibition at 100 µg/disc [1, 5] [mm]","zone of inhibition at 200 µg/disc [1, 5] [mm]","zone of inhibition at 20 µg/disc [1, 6] [mm]","zone of inhibition at 50 µg/disc [1, 6] [mm]","zone of inhibition at 100 µg/disc [1, 6] [mm]","zone of inhibition at 200 µg/disc [1, 6] [mm]","zone of inhibition at 20 µg/disc [2, 7] [mm]","zone of inhibition at 100 µg/disc [2, 7] [mm]","zone of inhibition at 200 µg/disc [2, 7] [mm]","zone of inhibition at 20 µg/disc [2, 8] [mm]","zone of inhibition at 100 µg/disc [2, 8] [mm]","zone of inhibition at 200 µg/disc [2, 8] [mm]",further results
"Nc1ncc([C@@H]2[C@@H](CNC(=O)c3ccc[nH]3)[C@H](CNC(=O)c3cc(Br)c[nH]3)[C@H]2c2cnc(N)[nH]2)[nH]1 (relative stereo) [Compound 1a, Debromosceptrin Acetate]",0,8,11,7,11,12,11 to 15,11 to 15,11 to 15,> 16,11,12,15,18,< 7,7,8 to 10,0,7,8,"growth inhibition of Bacillus subtilis (Bacillus subtilis; 10 μg/disk): most active; zone of inhibition at 50 µg/disc [2, 7]: < 7 mm; zone of inhibition at 50 µg/disc [2, 8]: 0 mm; HSV-1 activity ([3]; 25 μg/disk): ±; HSV-1 activity ([3]; 50 μg/disk): ±; HSV-1 activity ([3]; 100 μg/disk): ±; BIA activity (E. coli strain BR339): inducers; BIA activity, numerical color intensity scale 0-10 (E. coli strain BR339): 10 and 7 and 6; cytotoxicity, zone diameter ([4]; 25 μg/disk): 5 mm; cytotoxicity, zone diameter ([4]; 50 μg/disk): 5 mm; cytotoxicity, zone diameter ([4]; 100 μg/disk): 5 mm"
"Nc1ncc([C@@H]2[C@@H](CNC(=O)c3cc(Br)c(Br)[nH]3)[C@H](CNC(=O)c3cc(Br)c(Br)[nH]3)[C@H]2c2cnc(N)[nH]2)[nH]1 (relative stereo) [Compound 3a, Dibromosceptrin Acetate]",0,7,7,0,10,10,8 to 10,11 to 15,11 to 15,11 to 15,9,11,12,14,< 7,8 to 10,11 to 15,0,10,12,"HSV-1 activity ([3]; 25 μg/disk): -; HSV-1 activity ([3]; 50 μg/disk): ++; HSV-1 activity ([3]; 100 μg/disk): +++; BIA activity (E. coli strain BR339): somewhat less active; BIA activity, numerical color intensity scale 0-10 (E. coli strain BR339): 3 and 2; cytotoxicity, zone diameter ([4]; 25 μg/disk): 5 mm; cytotoxicity, zone diameter ([4]; 50 μg/disk): 5 mm; cytotoxicity, zone diameter ([4]; 100 μg/disk): 7 mm"
